Reference: patent publication US20250163057A1, “DCN-1 MODULATING COMPOUNDS AND METHODS OF USE THEREOF” (Cellarity, Inc., priority 2023, published 2025)
Like-named read-outs stand apart in the source and are kept apart here.

Assays:
[1] = molecular target: DCN2 (DCUND2) protein PONY domain (Homo sapiens (Human), UniProt Q6PH85); experiment: Measurement of Kinact/KI in the DCN2 TR-FRET Assay; type: binding; conditions: for Ki / kinact: time-dependent IC50 over 24 hrs
Procedure: A TR-FRET Assay was performed to evaluate the ability of the compounds to bind DCN-2.
The time resolved—Forster's resonance energy transfer (TR-FRET) assay was designed following the protocol established in (Scott et al., Nat Chem Biol. 2017 August; 13(8): 850-857). A recombinant form of the DCN2 (DCUND2) protein PONY domain was produced using an E. coli expression system at Viva Biotech China. The DCN2 protein was biotinylated (EZ sulfo-NHS-LC-biotin; Thermofisher) for labeling with 2.5 nM streptavidin terbium (Tb) cryptate in the reaction. The probe was changed to a non-covalent DCN1 inhibitor labeled with carboxyfluorescein (FAM; Zhou et al, Nat Commun. 2017; 8: 1150). Buffer conditions were modified to enhance protein stability by replacing TritonX with 0.05% Tween20 and increasing NaCl to 200 mM. The compounds were screened against 0.31 nM DCN1 and 40 nM FAM-labeled probe in a 40 ul reaction volume. The TR-FRET ratio between Tb-DCN1 and the FAM-labeled probe was measured in a 384-well opti-plate (Perkin Elmer) using a plate reader (BMG) at after treatment with compound (final DMSO concentration of 0.1%). The ratio was normalized to the high (DCN1 and FAM-probe) and low (DCN1 and no probe) controls for a readout of % activity (=100*(x−low)/(high−low)).
The Kinact and KI measurements were taken to allow for continuous reads over 24 hrs. Plates were read every 5 min up to 1 hr, every 15 min up to 5 hr, and every hour up to […]. Kinact and KI were calculated based on the following equations (Krippendorff B F, et al. Mechanism-based inhibition: deriving K(I) and k(inact) directly from time-dependent IC(50) values. J BiomolScreen. 2009; Mons E et al. A Comprehensive Guide for Assessing Covalent Inhibition in Enzymatic Assays Illustrated with Kinetic Simulations. CurrProtoc. 2022) where the KM of the probe against DCN2 is 21.62 nM. The Kinact and KI values could be estimated from the tight curves of the IC50 values over time.

[2] = molecular target: T1, DCN1 (DCUND1) protein PONY domain (Homo sapiens (Human), UniProt Q96GG9); experiment: TR-FRET assay, DCN1 binding with FAM-labeled probe
T1 sequence (Q96GG9 60-248): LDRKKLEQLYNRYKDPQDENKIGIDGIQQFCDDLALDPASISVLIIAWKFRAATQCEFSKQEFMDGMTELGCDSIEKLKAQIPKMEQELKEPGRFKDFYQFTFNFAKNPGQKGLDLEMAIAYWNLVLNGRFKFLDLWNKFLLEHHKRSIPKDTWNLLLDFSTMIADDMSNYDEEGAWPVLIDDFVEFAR
Method in brief: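 Tb-DCN1 PONY domain (E. coli, biotin/streptavidin-Tb); FAM-labelled non-covalent inhibitor probe; TritonX buffer, 200 mM NaCl; 5 nM DCN1 + 20 nM probe or 0.31 nM DCN1 + 900 nM total probe; 0.1% DMSO; TR-FRET read 1, 5, 24 hrs.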

[3] = tested on: Cullin-3 (CUL3) neddylation; experiment: AlphaLISA assay for Cullin-3 (CUL3) neddylation in TF 1 cells; type: cell-based; conditions: Homo sapiens, TF-1, 3 h, 3 hours treatment
Method in brief: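 Neddylated CUL3 was quantified by AlphaLISA in lysates of TF 1 cells exposed for 3 h to test compound in IMDM without supplements. Percent inhibition set between vehicle and 1 μM DI-1548 positive control; IC50 derived by Hill-equation fitting of dose-response curves.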

[4] = molecular target: T1, DCN1 (DCUND1) protein PONY domain; experiment: Off-rate measurement of reversible covalent molecules (jump dilution TR-FRET with Cy5 probe); type: binding
Text: A typical covalent compound is assumed to stay bound to a protein for at least the life of that protein in the cell. In reality, there is a range of how long a covalent compounds remains bound before a reverse reaction takes place. Thus, some covalent bonds can be labeled as reversible as their reverse reaction takes place in a measurable amount of time under physiological conditions. The assay capitalizes on the range of covalent binders by using a high affinity covalent binder as a probe to displace the more reversible binders in an adaptation of the jump dilution method.
In this version of the jump dilution method, the increase in covalent probe binding over time was measured through a TR-FRET reaction between the covalent probe and the biotinylated target protein.
The recombinant form of the DCN1 (DCUND1) protein PONY domain was produced using an E. coli expression system at Viva Biotech (China). The DCN1 protein was biotinylated (EZ sulfo-NHS-LC-biotin; Thermofisher) for labeling with streptavidin terbium (Tb) cryptate in the reaction. This biotinylated protein was used in two forms of the TR-FRET assay as described below.
The off-rate measurement is executed in two steps based on the jump dilution method. […] The greatest dilution allowed within the constraints of the assay was chosen. These factors allow a competitive advantage for the covalent probe to replace the test compound when that compound releases from the target protein. The actual measure is the rate of increased TR-FRET signal as the covalent probe replaces the test compound over time. […] The resulting time dependent curve of the TR-FRET signal is fit to the following equation:
Y=Y0+(Plateau−Y0)*(1−exp(−K*x))
K is the rate constant (1/unit of time). The residence time is defined as the inverse of K, the rate constant. The half-life is calculated as ln(2)/K.

Chain of DCN2 (DCUND2) protein PONY domain (Q6PH85 60-248): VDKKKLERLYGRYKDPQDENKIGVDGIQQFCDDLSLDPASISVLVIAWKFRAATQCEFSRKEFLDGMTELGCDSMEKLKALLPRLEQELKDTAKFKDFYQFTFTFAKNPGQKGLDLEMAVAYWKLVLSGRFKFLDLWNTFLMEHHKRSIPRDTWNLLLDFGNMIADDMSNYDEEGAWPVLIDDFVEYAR

| SMILES | kinact/KI [1] | Ki [1] | kinact [1] | IC50 ([2]; 24 hr after treatment with compound, read-out: TR FRET IC50 24 hr) | IC50 ([2]; read-out: TR FRET IC50 1 hr, 1 hr after treatment with compound) | IC50 [3] | kinact/KI ([1]; read-out: Kinact/KI (converted)) | kinact ([1]; read-out: Kinact (converted)) | Category ([4]; binding mode category from off-rate assay) | residence time ([4]; inverse of rate constant K, jump dilution TR-FRET) | koff ([4]; jump dilution, Cy5 covalent probe 150 nM, TR-FRET) | half-life ([4]; ln(2)/K, jump dilution TR-FRET) |
| --- | --- | --- | --- | --- | --- | --- | --- | --- | --- | --- | --- | --- |
| C=C(CN1CCOCC1)C(=O)NC[C@@H](NC(=O)[C@H](Cc1nc2ccc(C(C)C)cc2s1)NC(=O)CC)C1CCCCC1 [DI-1548, reference compound] | 0.9971 nM − 1 * min − 1 | 0.355 nM | 0.3536 min^ − 1 |  |  |  |  |  |  |  |  |  |
| CCN1C(=O)[C@@H](NC(=O)c2cccc(C(F)(F)F)c2)[C@@H](C2CC2)c2c(C(=O)N3C[C@H](NC)C[C@H]3C#N)nn(C3CCOCC3)c21 [Compound I-425, N-((4S,5S)-3-((2S,4R)-2-cyano-4-(methylamino)pyrrolidine-1-carbonyl)-4-cyclopropyl-7-ethyl-6-oxo-1-(tetrahydro-2H-pyran-4-yl)-4,5,6,7-tetrahydro-1H-pyrazolo[3,4-b]pyridin-5-yl)-3-(trifluoromethyl)benzamide] |  | 21.6 nM |  | ≤ 200 nM | ≤ 200 nM | ≤ 100 nM | 5000 M⁻¹ s⁻¹ | 0.000115 s⁻¹ | fast reversible | 76 min | 0.000219 s⁻¹ | 52.69 min |
